The source of these data is US20200261534A1, “NEW TREATMENTS OF MULTIPLE MYELOMA” (priority 2017, published 2020).

The test system of one assay is MM1S cells. Put plainly: Subcutaneous xenograft model, in vivo synergy of S09 drug combinations. The settings on record: MM1S s.c. xenograft, CB17-SCID mice; for Tumor volume: i.p.: B 0.5, C 50, D 0.5 mg/kg days 1 and 4, S09 4 mg/kg each 12 hours. On the set-up: species or system CB17-SCID immunosuppressed mice. As to the method: CB17-SCID immunosuppressed mice (female) of 6-7 weeks old housed and handled in a pathogen-free zone. They were purchased from Janvier Labs (France). All experiments were carried out within the facilities of the University of Salamanca (Spain).
Control: Medium (PBS), intraperitoneally (i.p.), each 12 hours on days 1 to 5.
Treatment Groups: • Monotherapy: • Bortezomib 0.5 mg/kg i.p. on days 1 and 4. • Cyclophosphamide 50 mg/kg i.p. on days 1 and 4 • Dexamethasone 0.5 mg/kg i.p. on days 1 and 4 • S09 4 mg/kg i.p. each 12 hours on days 1 to 7 • Double combinations: • Bortezomib 0.5 mg/kg i.p. on days 1 and 4+S09 4 mg/kg i.p. each 12 hours on days 1 to 7 • Cyclophosphamide 50 mg/kg i.p. on days 1 and 4+S09 4 mg/kg i.p. each 12 hours on days 1 to 7 • Dexamethasone 0.5 mg/kg i.p. on days 1 and 4+S09 4 mg/kg i.p. each 12 hours on days 1 to 7 • Bortezomib 0.5 mg/kg i.p. on days 1 and 4+Cyclophosphamide 50 mg/kg i.p. on days 1 and 4 • Cyclophosphamide 50 mg/kg i.p. on days 1 and 4+Dexamethasone 0.5 mg/kg i.p. on days 1 and 4 • Dexamethasone 0.5 mg/kg i.p. on days 1 and 4+Bortezomib 0.5 mg/kg i.p. on days 1 and 4 • Triple combinations: • Bortezomib 0.5 mg/kg i.p. on days 1 and 4+Dexamethasone 0.5 mg/kg i.p. on days 1 and 4+S09 4 mg/kg i.p. each 12 hours on days 1 to 7 • Cyclophosphamide 50 mg/kg i.p. on days 1 and 4+Dexamethasone 0.5 mg/kg i.p. on days 1 and 4+S09 4 mg/kg i.p. each 12 hours on days 1 to 7
Mice were shaved on the right flank and anesthetized by inhalation to decrease their mobility, were inoculated subcutaneously with 3×10^6 MM1S cells in 50 μl of RPMI-1640 medium and 50 μl of Corning @ Matrigel® Basement Membrane Matrix. […] This was estimated by measurements with a caliper of the two tumor diameters and using the following formula of a spheroid: […]
Where a and b correspond to the longest and shortest diameter, respectively. Tumor volume was monitored three times per week.
The treatment endpoint was determined by the value of tumor volume in the mouse (a range of 2000-2200 mm3).

The nature of assay [1]: Growth inhibition activity, comparative test of Example 3 (cell lines not given). In kind it is cell-based. To be noted: Example 3, comparison with stapled versions. The text has this: Following the same protocol as the one disclosed in previous sections, the following activity data were obtained: […]
[2] abbreviates: day of treatment 5, relative to day 1.
Setting [3] is: day of treatment 10, relative to day 1.
The mark [4] stands for this setting: day of treatment 15, relative to day 1.
The mark [5] stands for this setting: day of treatment 24, relative to day 1.

For `CC(C)C[C@H](NC(=O)[C@H](Cc1ccccc1)NC(=O)c1cnccn1)B(O)O` [B, bortezomib], the “normalized tumor volume percentage (%)” value came out at 100.00% in the assay on MM1S cells (day of treatment 1 (= 100)); 138.36% with MM1S cells (setting [2]); 230.48% in the assay with MM1S cells (setting [3]); 470.62% in the assay on MM1S cells (setting [4]); 1410.31% in the assay with MM1S cells (setting [5]). In addition, the Tumor volume in the assay on MM1S cells (day of treatment 1) is given as 119.96 mm^3; in the assay with MM1S cells (day of treatment 5) it was 165.98 mm^3; with MM1S cells (day of treatment 10), 276.48 mm^3; with MM1S cells (day of treatment 15), 564.56 mm^3; in the assay with MM1S cells (day of treatment 24), 1691.81 mm^3.

In the case of `O=P1(N(CCCl)CCCl)NCCCO1` (stereo not shown) [C, cyclophosphamide], the “normalized tumor volume percentage (%)” value worked out at 100.00% in the assay on MM1S cells (day of treatment 1 (= 100)); 156.92% in the assay with MM1S cells (setting [2]); 247.48% with MM1S cells (setting [3]); 552.57% in the assay with MM1S cells (setting [4]); 1252.21% with MM1S cells (setting [5]). The Tumor volume with MM1S cells (day of treatment 1) amounted to 120.75 mm^3; with MM1S cells (day of treatment 5), 189.48 mm^3; with MM1S cells (day of treatment 10), 298.83 mm^3; in the assay on MM1S cells (day of treatment 15), 667.23 mm^3; with MM1S cells (day of treatment 24), 1512.04 mm^3.

Take “Pro-Lys-Val-Val-11e-Leu-Lys-Lys-Ala-Thr-Ala-Tyr-Ile (PKVVILKKATAYI; wild type sequence) [SEQ ID NO: 11]”: in assay [1], the growth inhibition activity entry is on record as “does not present growth inhibition activity”.

On to `C[C@@H]1C[C@H]2[C@@H]3CCC4=CC(=O)C=C[C@]4(C)[C@@]3(F)[C@@H](O)C[C@]2(C)[C@@]1(O)C(=O)CO` [D, dexamethasone], for which the “normalized tumor volume percentage (%)” value is on record as 100.00% in the assay on MM1S cells (day of treatment 1 (= 100)); 110.62% in the assay with MM1S cells (setting [2]); 270.68% in the assay with MM1S cells (setting [3]); 524.90% in the assay with MM1S cells (setting [4]); 1206.21% in the assay with MM1S cells (setting [5]). In addition, the Tumor volume in the assay with MM1S cells (day of treatment 1) worked out at 120.35 mm^3; in the assay on MM1S cells (day of treatment 5), 133.13 mm^3; in the assay with MM1S cells (day of treatment 10), 325.76 mm^3; in the assay on MM1S cells (day of treatment 15), 631.72 mm^3; in the assay on MM1S cells (day of treatment 24), 1451.67 mm^3.
